Source: the supplement of paper PMC10307832

Tests used:
Test in all cases: relative viability (nuclei count vs DMSO), 5 days (fraction); higher = more cells survive
AZ628 + Phenformin = compound: CC1=C(C=C(C=C1)NC(=O)C2=CC(=CC=C2)C(C)(C)C#N)NC3=CC4=C(C=C3)N=CN(C4=O)C [AZ628] + N=C(N)NC(=N)NCCc1ccccc1 [Phenformin] (partner 250 µM)
How it was run: (§1)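 Values are medians from duplicate plates. Each reflects relative viability, defined as the nuclei count of treated wells over that of vehicle wells. Lung cancer cell lines in 1536-well plates were pin-tool dosed one day after seeding with one drug alone or with a fixed anchor-drug dose plus five library-drug doses (not always all listed) in √10 steps, then fixed, stained and imaged at 4× after 5 days.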

AZ628 + AZD7762 = compound: CC1=C(C=C(C=C1)NC(=O)C2=CC(=CC=C2)C(C)(C)C#N)NC3=CC4=C(C=C3)N=CN(C4=O)C [AZ628] + NC(=O)Nc1cc(-c2cccc(F)c2)sc1C(=O)N[C@H]1CCCNC1 [AZD7762] (partner 0.2 µM)
How it was run: as §1

QS11 + Luminespib = compound: C1CC2=C(C1)C=C(C=C2)OC3=NC(=C4C(=N3)N(C=N4)CC5=CC=C(C=C5)C6=CC=CC=C6)N[C@@H](CC7=CC=CC=C7)CO [QS11] + CCNC(=O)c1noc(-c2cc(C(C)C)c(O)cc2O)c1-c1ccc(CN2CCOCC2)cc1 [Luminespib] (partner 0.01 µM)
How it was run: as §1

AZ628 + Tozasertib = compound: CC1=C(C=C(C=C1)NC(=O)C2=CC(=CC=C2)C(C)(C)C#N)NC3=CC4=C(C=C3)N=CN(C4=O)C [AZ628] + Cc1cc(Nc2cc(N3CCN(C)CC3)nc(Sc3ccc(NC(=O)C4CC4)cc3)n2)n[nH]1 [Tozasertib] (partner 0.1 µM)
How it was run: as §1

Cell Line | relative viability (AZ628 + Phenformin; first compound 0.08 µM) | relative viability (AZ628 + Phenformin; first compound 0.253 µM) | relative viability (AZ628 + Phenformin; first compound 0.8 µM) | relative viability (AZ628 + Phenformin; first compound 2.53 µM) | relative viability (AZ628 + Phenformin; first compound 8 µM) | relative viability (AZ628 + AZD7762; first compound 0.08 µM) | relative viability (AZ628 + AZD7762; first compound 0.253 µM) | relative viability (AZ628 + AZD7762; first compound 0.8 µM) | relative viability (AZ628 + AZD7762; first compound 2.53 µM) | relative viability (AZ628 + AZD7762; first compound 8 µM) | relative viability (QS11 + Luminespib; first compound 0.08 µM) | relative viability (QS11 + Luminespib; first compound 0.253 µM) | relative viability (QS11 + Luminespib; first compound 2.53 µM) | relative viability (QS11 + Luminespib; first compound 8 µM) | relative viability (AZ628 + Tozasertib; first compound 0.08 µM) | relative viability (AZ628 + Tozasertib; first compound 0.253 µM) | relative viability (AZ628 + Tozasertib; first compound 0.8 µM) | relative viability (AZ628 + Tozasertib; first compound 2.53 µM) | relative viability (AZ628 + Tozasertib; first compound 8 µM) | relative viability (QS11 + Luminespib; first compound 0.8 µM)
NCI-H2087 | 0.348 | 0.289 | 0.246 | 0.27 | 0.169 | 1.04 | 1.04 | 1.03 | 1.13 | 0.298 | 0.136 | 0.186 | 0.158 | 0.172 | 0.251 | 0.174 | 0.19 | 0.204 | 0.132 | –
NCI-H2126 | 0.524 | 0.542 | 0.491 | 0.484 | 0.545 | 1.08 | 0.945 | 0.775 | 1.01 | 0.984 | 0.923 | 0.976 | 0.766 | 0.726 | 0.899 | 0.815 | 0.951 | 0.859 | 0.866 | 0.695
NCI-H2170 | 0.447 | 0.398 | 0.402 | 0.41 | 0.381 | 0.882 | 0.793 | 0.832 | 1.02 | 0.743 | 0.603 | 0.646 | 0.806 | 0.665 | 0.823 | 0.741 | 0.693 | 0.852 | 0.667 | 0.766
NCI-H2342 | 0.657 | 0.469 | 0.653 | 0.65 | 0.646 | 0.489 | 0.44 | 0.623 | 0.53 | 0.625 | 0.787 | 0.754 | 0.697 | 0.746 | 0.616 | 0.529 | 0.673 | 0.514 | 0.471 | 0.721
NCI-H2347 | 0.267 | 0.392 | 0.493 | 0.324 | 0.205 | 0.684 | 0.575 | 0.709 | 0.566 | 0.34 | 0.367 | 0.571 | 0.352 | 0.886 | 0.491 | 0.514 | 0.555 | 0.514 | 0.303 | 0.505
NCI-H2405 | 0.153 | 0.202 | 0.229 | 0.235 | 0.24 | 0.54 | 0.387 | 0.498 | 0.419 | 0.458 | 0.516 | 0.756 | 0.835 | 0.89 | 0.5 | 0.637 | 0.539 | 0.529 | 0.457 | 0.646
NCI-H3122 | 0.366 | 0.288 | 0.305 | 0.31 | 0.289 | 0.953 | 0.782 | 0.578 | 0.626 | 0.361 | 0.114 | 0.148 | 0.114 | 0.109 | 0.392 | 0.339 | 0.345 | 0.254 | 0.189 | –
PC-3 [JPC-3] | 0.441 | 0.477 | 0.485 | 0.464 | 0.383 | 0.929 | 0.754 | 0.808 | 0.83 | 0.727 | 0.708 | 0.729 | 0.718 | 0.703 | 0.909 | 0.909 | 0.926 | 0.91 | 0.798 | 0.663
PC-14 | 0.638 | 0.438 | 0.498 | 0.599 | 0.416 | 0.48 | 0.324 | 0.338 | 0.316 | 0.296 | – | 0.14 | 0.135 | 0.148 | 0.502 | 0.526 | 0.612 | 0.564 | 0.44 | 0.183
RERF-LC-KJ | 0.432 | 0.424 | 0.392 | 0.401 | 0.31 | 0.948 | 0.901 | 1.56 | 1.03 | 0.87 | 1.5 | 1.35 | 1.22 | 1.11 | 0.506 | 0.526 | 0.452 | 0.493 | 0.307 | 1.04
SW 900 | 0.536 | 0.691 | 0.561 | 0.422 | 0.399 | 0.552 | 0.552 | 0.494 | 0.634 | 0.378 | 0.18 | 0.197 | 0.17 | 0.178 | 0.7 | 0.549 | 0.553 | 0.496 | 0.232 | 0.166
